{"source": "patent US20050070554A1", "about": "“Substituted heterocyclic compounds and methods of use” (Amgen Inc., priority 2003, published 2005)", "target": "T1, LCK (Homo sapiens, UniProt P06239)", "T1 construct": "LCK KD GST (225-509); GST", "T1 sequence (P06239 225-509)": "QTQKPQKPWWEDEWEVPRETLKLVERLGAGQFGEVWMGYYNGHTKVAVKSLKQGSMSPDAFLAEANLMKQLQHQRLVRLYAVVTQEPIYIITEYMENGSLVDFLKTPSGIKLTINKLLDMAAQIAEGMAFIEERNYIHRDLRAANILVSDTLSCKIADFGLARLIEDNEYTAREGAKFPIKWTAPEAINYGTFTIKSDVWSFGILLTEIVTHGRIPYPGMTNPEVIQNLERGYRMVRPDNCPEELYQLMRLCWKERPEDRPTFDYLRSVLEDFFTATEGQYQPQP", "assay": "LCK-Homogeneous Time Resolved Fluorescent (HTRF) Kinase Assay", "format": "biochemical", "procedure": "LCK-Homogeneous Time Resolved Fluorescent (HTRF) Kinase Assay:\nThe LCK HTRF assay begins with LCK in the presence of ATP phosphorylating the biotinylated peptide Gastrin. The reaction incubates for 90 min. To quench the assay detection reagents are added which both stop the reaction by diluting out the enzyme and chelating the metals due to the presence of EDTA. Once the detection reagents are added the assay incubates for 30 min to allow for equilibration of the detection reagents.\nBuffer conditions are as follows: 50 mM HEPES pH 7.5, 50 mM NaCl, 20 mM MgCl, 5 mM MnCl, 2 mM DTT, 0.05% BSA.\nThe assay is quenched and stopped with 160 μL of detection reagent. Detection reagents are as follows: Buffer made of 50 mM Tris, pH 7.5, 100 mM NaCl, 3 mM EDTA, 0.05% BSA, 0.1% Tween20.\nThe assay plate is read in either a Discovery or a RubyStar.", "key": {"[1]": {"details": "read-out: activity in the LCK-HTRF Kinase Assay"}}, "note": "pIC50: −log10 of the molar value. Like-named read-outs stand apart in the source and are kept apart here.", "data": [{"smiles": "Cc1cccc(C)c1-n1c(=O)c2cnc(Nc3ccc(N4CCNCC4)cc3)nc2n2c3ccccc3nc12", "note": "[No. 2, 6-(2,6-dimethylphenyl)-2-((4-(1-piperazinyl)phenyl)-amino)pyrimido[5′,4′:5,6]pyrimido[1,2-a]-benzimidazol-5(6H)-one]", "values": [{"measurement": "pIC50", "setting": "[1]", "value": "> 6.00"}]}, {"smiles": "Cc1cccc(C)c1-n1c(=O)c2cnc(Nc3ccc(N4CCN(C(=O)OC(C)(C)C)CC4)cc3)nc2n2c3ccccc3nc12", "note": "[No. 3, 1,1-dimethylethyl 4-(4-((6-(2,6-dimethylphenyl)-5-oxo-5,6-dihydropyrimido[5′,4′:5,6]pyrimido[1,2-a]-benzimidazol-2-yl)amino)phenyl)-1-piperazinecarboxylate]", "values": [{"measurement": "pIC50", "setting": "[1]", "value": "> 6.00"}]}, {"smiles": "COc1cc(Nc2ncc3c(=O)n(-c4c(C)cccc4C)c4nc5ccccc5n4c3n2)ccc1OCCC1CCN(C)CC1", "note": "[No. 4, 6-(2,6-dimethylphenyl)-2-((3-(methyloxy)-4-((2-(1-methyl-4-piperidinyl)ethyl)oxy)phenyl)amino)-pyrimido[5′,4′:5,6]pyrimido[1,2-a]benzimidazol-5(6H)-one]", "values": [{"measurement": "pIC50", "setting": "[1]", "value": "> 6.00"}]}, {"smiles": "Cc1cccc(C)c1-n1c(=O)c2cnc(Nc3ccc(OCCCN4CCCCC4)c(F)c3)nc2n2c3ccccc3nc12", "note": "[No. 5, 6-(2,6-dimethylphenyl)-2-((3-fluoro-4-((3-(1-piperidinyl)propyl)oxy)phenyl)amino)-pyrimido[5′,4′:5,6]pyrimido[1,2-a]benzimidazol-5(6H)-one]", "values": [{"measurement": "pIC50", "setting": "[1]", "value": "> 6.00"}]}, {"smiles": "CCN(CC)CCCOc1ccc(Nc2ncc3c(=O)n(-c4c(C)cccc4C)c4nc5ccccc5n4c3n2)cc1F", "note": "[No. 6, 2-((4-((3-(diethylamino)propyl)oxy)-3-fluorophenyl)-amino)-6-(2,6-dimethylphenyl)pyrimido[5′,4′:5,6]-pyrimido[1,2-a]benzimidazol-5(6H)-one]", "values": [{"measurement": "pIC50", "setting": "[1]", "value": "> 6.00"}]}, {"smiles": "Cc1cccc(C)c1-n1c(=O)c2cnc(Nc3ccc(OCCCN4CCN(C)CC4)c(F)c3)nc2n2c3ccccc3nc12", "note": "[No. 7, 6-(2,6-dimethylphenyl)-2-((3-fluoro-4-((3-(4-methyl-1-piperazinyl)propyl)oxy)phenyl)amino)-pyrimido[5′,4′:5,6]pyrimido[1,2-a]benzimidazol-5(6H)-one]", "values": [{"measurement": "pIC50", "setting": "[1]", "value": "> 6.00"}]}, {"smiles": "Cc1cccc(C)c1-n1c(=O)c2cnc(Nc3ccc(OCCN(C)C)cc3)nc2n2c3ccccc3nc12", "note": "[No. 8, 2-((4-((2-(dimethylamino)ethyl)oxy)phenyl)amino)-6-(2,6-dimethylphenyl)pyrimido[5′,4′:5,6]pyrimido[1,2-a]benzimidazol-5(6H)-one]", "values": [{"measurement": "pIC50", "setting": "[1]", "value": "> 6.00"}]}, {"smiles": "COc1cc(Nc2ncc3c(=O)n(-c4c(C)cccc4C)c4nc5ccccc5n4c3n2)cc(OC)c1OCCCN1CCN(C)CC1", "note": "[No. 9, 2-((3,5-bis(methyloxy)-4-((3-(4-methyl-1-piperazinyl)propyl)oxy)phenyl)amino)-6-(2,6-dimethylphenyl)pyrimido[5′,4′:5,6]pyrimido[1,2-a]-benzimidazol-5(6H)-one]", "values": [{"measurement": "pIC50", "value": "> 6.00"}]}, {"smiles": "COc1cc(Nc2ncc3c(=O)n(-c4c(C)cccc4C)c4nc5ccccc5n4c3n2)ccc1OCCN1CCN(C)CC1", "note": "[No. 10, 6-(2,6-dimethylphenyl)-2-((3-(methyloxy)-4-((2-(4-methyl-1-piperazinyl)ethyl)oxy)phenyl)amino)-pyrimido[5′,4′:5,6]pyrimido[1,2-a]benzimidazol-5(6H)-one]", "values": [{"measurement": "pIC50", "value": "> 6.00"}]}, {"smiles": "COc1cc(Nc2ncc3c(=O)n(-c4c(C)cccc4C)c4nc5ccccc5n4c3n2)cc(OCCN2CCN(C)CC2)c1OC", "note": "[No. 11, 2-((3,4-bis(methyloxy)-5-((2-(4-methyl-1-piperazinyl)ethyl)oxy)phenyl)amino)-6-(2,6-dimethylphenyl)pyrimido[5′,4′:5,6]pyrimido[1,2-a]-benzimidazol-5(6H)-one]", "values": [{"measurement": "pIC50", "setting": "[1]", "value": "> 6.00"}]}, {"smiles": "COc1cc(Nc2ncc3c(=O)n(-c4c(C)cccc4C)c4nc5ccccc5n4c3n2)ccc1OCC1CCN(C)CC1", "note": "[No. 12, 6-(2,6-dimethylphenyl)-2-((3-(methyloxy)-4-(((1-methyl-4-piperidinyl)methyl)oxy)phenyl)amino)-pyrimido[5′,4′:5,6]pyrimido[1,2-a]benzimidazol-5(6H)-one]", "values": [{"measurement": "pIC50", "setting": "[1]", "value": "> 6.00"}]}, {"smiles": "Cc1cc(N2CCN(C)CC2)ccc1Nc1ncc2c(=O)n(-c3c(C)cccc3C)c3nc4ccccc4n3c2n1", "note": "[No. 13, 6-(2,6-dimethylphenyl)-2-((2-methyl-4-(4-methyl-1-piperazinyl)phenyl)amino)pyrimido[5′,4′:5,6]-pyrimido[1,2-a]benzimidazol-5(6H)-one]", "values": [{"measurement": "pIC50", "setting": "[1]", "value": "> 6.00"}]}, {"smiles": "Cc1cccc(C)c1-n1c(=O)c2cnc(Nc3ccc(OC[C@@H]4CCCN4)cc3)nc2n2c3ccccc3nc12", "note": "[No. 14, 6-(2,6-dimethylphenyl)-2-((4-(((2S)-2-pyrrolidinylmethyl)oxy)phenyl)amino)-pyrimido[5′,4′:5,6]pyrimido[1,2-a]benzimidazol-5(6H)-one]", "values": [{"measurement": "pIC50", "setting": "[1]", "value": "> 6.00"}]}, {"smiles": "Cc1cc(OCCCN2CCCCC2)ccc1Nc1ncc2c(=O)n(-c3c(C)cccc3C)c3nc4ccccc4n3c2n1", "note": "[No. 15, 6-(2,6-dimethylphenyl)-2-((2-methyl-4-((3-(1-piperidinyl)propyl)oxy)phenyl)amino)-pyrimido[5′,4′:5,6]pyrimido[1,2-a]benzimidazol-5(6H)-one]", "values": [{"measurement": "pIC50", "setting": "[1]", "value": "> 6.00"}]}, {"smiles": "Cc1cc(OCCCN2CCN(C)CC2)ccc1Nc1ncc2c(=O)n(-c3c(C)cccc3C)c3nc4ccccc4n3c2n1", "note": "[No. 16, 6-(2,6-dimethylphenyl)-2-((2-methyl-4-((3-(4-methyl-1-piperazinyl)propyl)oxy)phenyl)amino)-pyrimido[5′,4′:5,6]pyrimido[1,2-a]benzimidazol-5(6H)-one]", "values": [{"measurement": "pIC50", "setting": "[1]", "value": "> 6.00"}]}, {"smiles": "COc1cc(Nc2ncc3c(=O)n(-c4c(C)cccc4C)c4nc5ccccc5n4c3n2)cc(OC)c1OC", "note": "[No. 18, 6-(2,6-dimethylphenyl)-2-((3,4,5-tris(methyloxy)-phenyl)amino)pyrimido[5′,4′:5,6]pyrimido[1,2-a]-benzimidazol-5(6H)-one]", "values": [{"measurement": "pIC50", "setting": "[1]", "value": "> 6.00"}]}, {"smiles": "COc1cc(Nc2ncc3c(=O)n(-c4c(C)cccc4C)c4nc5ccccc5n4c3n2)ccc1N1CCN(C)CC1", "note": "[No. 19, 6-(2,6-dimethylphenyl)-2-((3-(methyloxy)-4-(4-methyl-1-piperazinyl)phenyl)amino)-pyrimido[5′,4′:5,6]pyrimido[1,2-a]benzimidazol-5(6H)-one]", "values": [{"measurement": "pIC50", "value": "> 6.00"}]}, {"smiles": "COc1cc(Nc2ncc3c(=O)n(-c4c(C)cccc4C)c4nc5ccccc5n4c3n2)ccc1OCCCN1CCN(C)CC1", "note": "[No. 20, 6-(2,6-dimethylphenyl)-2-((3-(methyloxy)-4-((3-(4-methyl-1-piperazinyl)propyl)oxy)phenyl)amino)-pyrimido[5′,4′:5,6]pyrimido[1,2-a]benzimidazol-5(6H)-one]", "values": [{"measurement": "pIC50", "value": "> 6.00"}]}, {"smiles": "COc1cc(Nc2ncc3c(=O)n(-c4c(C)cccc4C)c4nc5ccccc5n4c3n2)cc(OCCCN2CCN(C)CC2)c1OC", "note": "[No. 21, 2-((3,4-bis(methyloxy)-5-((3-(4-methyl-1-piperazinyl)propyl)oxy)phenyl)amino)-6-(2,6-dimethylphenyl)pyrimido[5′,4′:5,6]pyrimido[1,2-a]-benzimidazol-5(6H)-one]", "values": [{"measurement": "pIC50", "setting": "[1]", "value": "> 6.00"}]}, {"smiles": "COc1cc(Nc2ncc3c(=O)n(-c4c(C)cccc4C)c4nc5ccccc5n4c3n2)cc(OC)c1OCCN1CCN(C)CC1", "note": "[No. 22, 2-((3,5-bis(methyloxy)-4-((2-(4-methyl-1-piperazinyl)ethyl)oxy)phenyl)amino)-6-(2,6-dimethylphenyl)pyrimido[5′,4′:5,6]pyrimido[1,2-a]-benzimidazol-5(6H)-one]", "values": [{"measurement": "pIC50", "setting": "[1]", "value": "> 6.00"}]}, {"smiles": "Cc1cccc(C)c1-n1c(=O)c2cnc(Nc3ccc(OC[C@H]4CCCN4)cc3)nc2n2c3ccccc3nc12", "note": "[No. 23, 6-(2,6-dimethylphenyl)-2-((4-(((2R)-2-pyrrolidinylmethyl)oxy)phenyl)amino)-pyrimido[5′,4′:5,6]pyrimido[1,2-a]benzimidazol-5(6H)-one]", "values": [{"measurement": "pIC50", "setting": "[1]", "value": "> 6.00"}]}, {"smiles": "Cc1cccc(C)c1-n1c(=O)c2cnc(Nc3ccc(OCCC4CCN(C)CC4)cc3)nc2n2c3ccccc3nc12", "note": "[No. 24, 6-(2,6-dimethylphenyl)-2-((4-((2-(1-methyl-4-piperidinyl)ethyl)oxy)phenyl)amino)-pyrimido[5′,4′:5,6]pyrimido[1,2-a]benzimidazol-5(6H)-one]", "values": [{"measurement": "pIC50", "setting": "[1]", "value": "> 6.00"}]}, {"smiles": "COc1cc(Nc2ncc3c(=O)n(-c4c(C)cccc4C)c4nc5ccccc5n4c3n2)cc(OC)c1OCCN1CCCCC1", "note": "[No. 25, 2-((3,5-bis(methyloxy)-4-((2-(1-piperidinyl)ethyl)-oxy)phenyl)amino)-6-(2,6-dimethylphenyl)-pyrimido[5′,4′:5,6]pyrimido[1,2-a]benzimidazol-5(6H)-one]", "values": [{"measurement": "pIC50", "setting": "[1]", "value": "> 6.00"}]}, {"smiles": "Cc1cccc(C)c1-n1c(=O)c2cnc(Nc3ccc(N4CCN(C)CC4)c(F)c3)nc2n2c3ccccc3nc12", "note": "[No. 26, 6-(2,6-dimethylphenyl)-2-((3-fluoro-4-(4-methyl-1-piperazinyl)phenyl)amino)pyrimido[5′,4′:5,6]-pyrimido[1,2-a]benzimidazol-5(6H)-one]", "values": [{"measurement": "pIC50", "setting": "[1]", "value": "> 6.00"}]}, {"smiles": "Cc1cccc(C)c1-n1c(=O)c2cnc(Nc3ccc(OCCN4CCCCC4)cc3)nc2n2c3ccccc3nc12", "note": "[No. 27, 6-(2,6-dimethylphenyl)-2-((4-((2-(1-piperidinyl)-ethyl)oxy)phenyl)amino)pyrimido[5′,4′:5,6]-pyrimido[1,2-a]benzimidazol-5(6H)-one]", "values": [{"measurement": "pIC50", "setting": "[1]", "value": "> 6.00"}]}, {"smiles": "Cc1cccc(C)c1-n1c(=O)c2cnc(Nc3ccc(OC[C@@H]4CCCN4C)cc3)nc2n2c3ccccc3nc12", "note": "[No. 28, 6-(2,6-dimethylphenyl)-2-((4-((((2S)-1-methyl-2-pyrrolidinyl)methyl)oxy)phenyl)amino)-pyrimido[5′,4′:5,6]pyrimido[1,2-a]benzimidazol-5(6H)-one]", "values": [{"measurement": "pIC50", "setting": "[1]", "value": "> 6.00"}]}]}
